Measured values reported in PubChem BioAssay (NCI).
“And” between values parts separate entries of the source, which are not always exact repeats. Equal entries are not always repeated.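 Method: 48-hour compound exposure of cells in 96-well plates, five concentrations, linear interpolation of endpoints. Here, GI50 denotes the concentration required for 50% inhibition of growth. TGI is the concentration that stops growth completely.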

What was measured:
Experiment in all cases: NCI-60 cell line screen, 48 h
OVCAR-5 ovarian = test system: OVCAR-5 ovarian
TK-10 renal = test system: TK-10 renal
UO-31 renal = test system: UO-31 renal
RXF 393 renal = test system: RXF 393 renal
HOP-62 NSCLC = test system: HOP-62 NSCLC
A549 NSCLC = test system: A549 NSCLC
A498 renal = test system: A498 renal
KM12 colon = test system: KM12 colon
IGROV1 ovarian = test system: IGROV1 ovarian
MDA-N = test system: MDA-N

| Compound | TGI (OVCAR-5 ovarian) [µM] | TGI (TK-10 renal) [µM] | TGI (UO-31 renal) [µM] | TGI (RXF 393 renal) | TGI (HOP-62 NSCLC) [µM] | TGI (A549 NSCLC) [µM] | TGI (A498 renal) | TGI (KM12 colon) [µM] | TGI (IGROV1 ovarian) [µM] | TGI (MDA-N) [µM] | GI50 (A498 renal) [µM] | GI50 (OVCAR-5 ovarian) [µM] | GI50 (UO-31 renal) | GI50 (RXF 393 renal) | GI50 (HOP-62 NSCLC) | GI50 (KM12 colon) [µM] | GI50 (MDA-N) [µM] |
| --- | --- | --- | --- | --- | --- | --- | --- | --- | --- | --- | --- | --- | --- | --- | --- | --- | --- |
| CCOC(=O)/C=C1\Nc2ccccc2C12CCc1c([nH]c3ccccc13)C2C(=O)OCC (configuration not stated) | > 100 | > 100 | > 100 | > 100 µM | > 100 | > 100 | > 100 µM | > 100 | > 100 | 81 |  |  |  |  |  |  |  |
| COc1cn2c(cc1=O)COc1ccc(-c3ccccc3)cc1-2 | > 100 | > 79.8 | > 100 | > 100 µM | > 100 | 99.5 | > 100 µM | > 100 | > 100 | > 100 | 33 |  |  |  |  |  |  |
| CN(C)c1ccc(/C=C(\NC(=O)c2ccccc2)C(=O)Nc2ccccc2C(=O)NN2C(=O)CSC2c2ccc(N(C)C)cc2)cc1 (configuration not stated) | > 100 |  | > 100 | > 100 µM | > 100 | > 100 | > 100 µM | > 100 | > 100 | > 100 |  |  |  |  |  |  |  |
| COC(=O)Cc1c(C2=Nc3ccccc3C2(O)CC(=O)OC)[nH]c2ccccc12 (configuration not stated) | > 100 | > 100 | > 100 | > 100 µM | > 100 | > 100 | > 100 µM | > 100 | > 100 | > 100 |  |  |  |  |  |  |  |
| COc1cc2c3c(n(CCCNCCO)c(=O)c2cc1OC)-c1cc2c(cc1C3=O)OCO2 |  | 28.5 |  | 1.26 µM and 5.75 µM |  |  | 1.87 µM and 1.49 µM |  | 2.38 |  | 0.033 | 14.4 | 0.0183 µM and 0.181 µM | 0.139 µM and 0.268 µM | 0.0127 µM and 0.0979 µM | 3.16 | 2.3 |
| Cn1c(N)c(/C=N/NC(=O)CC#N)c(=O)n(C)c1=O | > 100 | > 100 | > 100 | > 100 µM | > 100 | > 100 | > 100 µM | > 100 | > 100 | > 100 |  |  |  |  |  |  |  |
| CC(C)=CC(=O)O[C@@H]1CC(C)(C)CC2C3=CCC4[C@]56CC[C@](O)(OC5)C(C)(C)C6CC[C@@]4(C)C3(C)CC[C@]21C(=O)O (some centres not stated) | > 100 | > 100 |  | > 100 µM | > 100 | > 100 | > 100 µM | > 100 | > 100 | > 100 |  |  |  |  |  |  |  |
| CC1=NNC(N)=N/C1=C/C(Sc1ccc(Cl)cc1)c1cccs1 (configuration not stated) | 35.2 | > 100 | 17.7 | 34.7 µM | 28.7 | 38.8 | 37.1 µM | 23.1 | 29 | 85 |  |  |  |  |  |  |  |
| CCCCC[C@H](O)[C@H](C)C=C1SCCCS1 | > 100 | > 100 | > 100 | > 100 µM | > 100 | > 100 | > 100 µM | > 100 | > 100 | > 100 |  |  |  |  |  |  |  |
| COc1ccc(Cn2nc(OCc3ccccn3)c3cc([N+](=O)[O-])ccc32)cc1 | > 100 | > 100 | > 100 | > 100 µM | > 100 | > 100 | > 100 µM | > 100 | > 100 | > 100 |  |  |  |  |  |  |  |
| N#Cc1c(N)c(-c2ccc(Cl)cc2)c(F)c2ccccc12 | > 100 | > 100 | > 100 | 58.3 µM | > 100 | > 100 | > 100 µM | > 100 | > 100 | > 100 |  |  |  |  |  |  |  |
| CC1(C)OC[C@@H](/C=C\CCO[Si](c2ccccc2)(c2ccccc2)C(C)(C)C)N1C(=O)c1ccccc1 | 46 | > 100 | 36.5 | 27.9 µM | > 100 | 23.2 | 44.8 µM | 34.6 | > 100 | > 100 |  |  |  |  |  |  |  |
| O=C(Cn1c2ccc(Br)cc2c2nc3ccccc3nc21)NC1CCCCC1 | > 100 | > 100 | > 100 | > 100 µM | > 100 | > 100 | > 100 µM | > 100 | > 100 | > 100 |  |  |  |  |  |  |  |
| Cc1ccc(S(=O)(=O)Nn2c(-c3ccccc3)c(C#N)c(-c3ccc([N+](=O)[O-])cc3)c(C#N)c2=O)cc1 | > 100 | > 100 |  | > 100 µM | > 100 | > 100 | > 100 µM | > 100 | > 100 | > 100 |  |  |  |  |  |  |  |
| O=C1/C(=C/c2cccc(Oc3ccccc3)c2)N=C(c2ccccc2)N1c1nc2ccc(Sc3ccccc3)cc2[nH]1 | > 100 | 68.4 | > 100 | > 100 µM | > 100 | > 100 | 81.2 µM | > 100 | > 100 | 35.8 |  |  |  |  |  |  |  |
| O=C1c2cc(Cl)ccc2-n2c(noc2=O)C2CSCN12 (configuration not stated) | > 100 | > 100 | > 100 | > 100 µM | > 100 | > 100 | > 100 µM | > 100 | > 100 | > 100 |  |  |  |  |  |  |  |
| C/C(=N\N=C(N)N)c1c(C(=O)OCCCCCCOC(=O)c2nc3sccn3c2/C(C)=N/N=C(N)N)nc2sccn12 | > 100 | 55.1 | > 100 | > 100 µM |  | > 100 | > 100 µM | > 100 | > 100 | > 100 |  |  |  |  |  |  |  |
| N#Cc1c(=O)c2cccnc2n2c1[nH]c1ccccc12 | > 100 | > 100 | > 100 | > 100 µM | > 100 | > 100 | > 100 µM | > 100 | > 100 | > 100 |  |  |  |  |  |  |  |
| O=[N+]([O-])c1ccc2nc3ccc([N+](=O)[O-])cn3c2c1 | > 100 | > 100 | > 100 | > 100 µM | 39.1 | > 100 | > 100 µM | > 100 | > 100 | > 100 |  |  |  |  |  |  |  |
| O=C1c2ccccc2S(=O)(=O)c2ccccc21 | > 100 | > 100 | > 100 | > 100 µM | > 100 | > 100 | > 100 µM | > 100 | > 100 | > 100 |  |  |  |  |  |  |  |
| O=c1oc2ccccc2cc1-c1nc2ccc([N+](=O)[O-])cc2o1 |  | > 100 | > 100 | > 100 µM | > 100 | > 100 | > 100 µM | > 100 | > 100 | > 100 |  |  |  |  |  |  |  |
